Numbers after ± are expanded uncertainties.
Experiment: xn = mol fraction of the nth substance listed
Settings: 298.15 K, 101 kPa, Liquid, Vibrating tube method

CN1CCCC1=O [N-methylpyrrolidone] + CCCC[NH3+].O=[N+]([O-])[O-] showed a mass density (x2 = 0) of 1028.25 ± 0.13 kg/m3.
Molecule CN1CCCC1=O [N-methylpyrrolidone] + CCC[NH3+].O=[N+]([O-])[O-] has a mass density (x2 = 0) of 1028.25 ± 0.13 kg/m3.
Molecule CN1CCCC1=O [N-methylpyrrolidone] + CC[NH3+].O=[N+]([O-])[O-] has a mass density (x2 = 0) of 1028.25 ± 0.13 kg/m3.
In the case of CC[NH3+].O=[N+]([O-])[O-] [ethylammonium nitrate] + CN1CCCC1=O, the mass density (x1 = 0.049) is reported as 1040.83 ± 0.16 kg/m3, the mass density (x1 = 0.138) is reported as 1059.94 ± 0.22 kg/m3 and the mass density (x1 = 0.166) is reported as 1065.8 ± 0.25 kg/m3. The mass density (x1 = 0.223) was 1076.59 ± 0.32 kg/m3, the mass density (x1 = 0.242) was 1080.27 ± 0.35 kg/m3 and the mass density (x1 = 0.292) was 1089.23 ± 0.43 kg/m3. For the same molecule, the mass density (x1 = 0.347) was 1098.75 ± 0.52 kg/m3, the mass density (x1 = 0.413) was 1109.61 ± 0.66 kg/m3 and the mass density (x1 = 0.457) was 1116.43 ± 0.75 kg/m3. It also gave a mass density (x1 = 0.48) of 1119.62 ± 0.81 kg/m3, a mass density (x1 = 0.54) of 1129.36 ± 0.96 kg/m3 and a mass density (x1 = 0.592) of 1137.95 ± 1.1 kg/m3. It also gave a mass density (x1 = 0.63) of 1143.72 ± 1.2 kg/m3, a mass density (x1 = 0.684) of 1153.22 ± 1.4 kg/m3 and a mass density (x1 = 0.763) of 1167.68 ± 1.7 kg/m3. It also gave a mass density (x1 = 0.83) of 1179.62 ± 2 kg/m3, a mass density (x1 = 0.915) of 1195.54 ± 2.4 kg/m3 and a mass density (x1 = 0.981) of 1207.67 ± 2.7 kg/m3. It also gave a mass density (x1 = 1) of 1210.76 ± 2.8 kg/m3.
CCCC[NH3+].O=[N+]([O-])[O-] [n-butylammonium nitrate] + CN1CCCC1=O gave a mass density (x1 = 0.048) of 1036.44 ± 0.15 kg/m3, a mass density (x1 = 0.108) of 1044.94 ± 0.19 kg/m3 and a mass density (x1 = 0.163) of 1051.72 ± 0.24 kg/m3. The mass density (x1 = 0.267) was 1062.31 ± 0.36 kg/m3, the mass density (x1 = 0.365) was 1069.91 ± 0.51 kg/m3 and the mass density (x1 = 0.439) was 1074.93 ± 0.65 kg/m3. The mass density (x1 = 0.538) was 1080.43 ± 0.86 kg/m3, the mass density (x1 = 0.67) was 1088.06 ± 1.2 kg/m3 and the mass density (x1 = 0.843) was 1097.2 ± 1.7 kg/m3. The mass density (x1 = 1) was 1105.49 ± 2.3 kg/m3.
Work on CCC[NH3+].O=[N+]([O-])[O-] [propylammonium nitrate] + CN1CCCC1=O yielded a mass density (x1 = 0.046) of 1038.38 ± 0.15 kg/m3, a mass density (x1 = 0.167) of 1059.42 ± 0.24 kg/m3 and a mass density (x1 = 0.202) of 1064.53 ± 0.29 kg/m3. The mass density (x1 = 0.263) was 1073.3 ± 0.37 kg/m3, the mass density (x1 = 0.329) was 1081.53 ± 0.47 kg/m3 and the mass density (x1 = 0.406) was 1090.6 ± 0.61 kg/m3. The mass density (x1 = 0.461) was 1096.52 ± 0.73 kg/m3, the mass density (x1 = 0.551) was 1105.72 ± 0.94 kg/m3 and the mass density (x1 = 0.582) was 1108.68 ± 1 kg/m3. For the same molecule, the mass density (x1 = 0.628) was 1113.18 ± 1.1 kg/m3, the mass density (x1 = 0.661) was 1116.42 ± 1.2 kg/m3 and the mass density (x1 = 0.721) was 1122.67 ± 1.4 kg/m3. For the same molecule, the mass density (x1 = 0.781) was 1128.74 ± 1.6 kg/m3, the mass density (x1 = 0.808) was 1130.96 ± 1.7 kg/m3 and the mass density (x1 = 0.862) was 1136.73 ± 1.9 kg/m3.

Reference: the NIST ThermoML archive (doi:10.1016/j.fluid.2014.09.031)
